Columns and labels:
[1] = tested on: hiPSC (DF6-9-9T); assay: Neutral red cell viability assay in hiPSC; assay type: cell-based, human; conditions: for elimination of hiPSC: 24 hour treatment, sub-confluent hiPSC; for toxicity: 72 hours
Description: Neutral red assays for cell viability were performed as previously described. In vitro cell death was determined using SYTOX® Green nucleic acid stain (Life Technologies). Briefly, cells were incubated in 5 μM SYTOX® Green for 30 minutes at 37° C. in a humidified cell incubator with 5% CO2. […] Imaging of cell viability was performed using Live/Dead® Viability/Cytotoxicity Kit, for mammalian cells (Life Technologies). Cells were stained for 20 minutes at room temperature with 4 μM Calcein AM to detect viable cells and 2 μM Ethidium Homodimer 1 to detect cells with compromised membranes. […] Imaging was performed with a Nikon Ti-U inverted microscope.

[2] = tested on: confluent hiPSC (DF6-9-9T); assay: Bright field imaging of cell morphology; assay type: cell-based, human; conditions: 72 hours, 2.5 μM STF-31, 30 μM WZB117, 20 μM PluriSIn
Description: (§1) In Vitro Toxicity Assays: Treatment with small molecules or glucose deprivation was initiated in hESC or hiPSC at 24 and 96 h post-plating and in vitro toxicity assays were performed at specified treatment endpoints 24-96 hours after treatment initiation. […] Neutral red assays for cell viability were performed as previously described. In vitro cell death was determined using SYTOX® Green nucleic acid stain (Life Technologies). Briefly, cells were incubated in 5 μM SYTOX® Green for 30 minutes at 37° C. in a humidified cell incubator with 5% CO2. Percent cell viability was determined by normalizing to replicate cells incubated with 120 μM digitonin (Sigma-Aldrich) and 5 μM SYTOX® Green. Imaging of cell viability was performed using Live/Dead® Viability/Cytotoxicity Kit, for mammalian cells (Life Technologies). Cells were stained for 20 minutes at room temperature with 4 μM Calcein AM to detect viable cells and 2 μM Ethidium Homodimer 1 to detect cells with compromised membranes. Representative images of alterations in cell morphology were acquired on confluent hPSC 24-72 hours after treatment initiation. Imaging was performed with a Nikon Ti-U inverted microscope.

[3] = tested on: confluent hiPSC; assay: Colony formation assay (alkaline phosphatase staining); assay type: cell-based, human; conditions: 24 hour pulse, cells passaged, cultured 6 days
Description: The first iteration was adapted from previously described method, after 24 hours of treatment, hiPSC were detached with Accutase (StemCell Technologies), re-suspended in E8, passed though 12×75 mm tube with cell strainer cap (Falcon), and plated at 5e4 live cells per 2 cm^2. Media were changed every 48 hours and cells were cultured for six days, at which time staining for alkaline phosphatase was performed with leukocyte alkaline phosphatase kit (Sigma-Aldrich) as described and plates were visually inspected for phosphatase-positive colonies. This strategy represents the most common implementation of the colony formation assay. However, concerns regarding the cell death normally encountered during passaging prompted another approach for stricter assessment. In the second iteration, cells were treated for 24 hours, washed twice with 0.5 mL D-PBS, and media refreshed with E8. Thereafter, media were replaced daily for six days at which point staining for alkaline phosphatase activity was performed. […] Elimination of hiPSC from co-cultures with differentiated cells was performed with human fibroblasts and day 10 cardiomyocytes derived from hiPSC. hiPSC (DF6-9-9T) were plated at concentrations ranging from 100-10,000 live cells per well with human fibroblasts (1.75e5 cells) or day 10 differentiated cardiomyocytes (3.75e5 cells) in E8 and Y-27632 per 9.6 cm^2. […] Six days after plating, staining for alkaline phosphatase activity was performed. […] Imaging of wells was performed with a Sony Cyber-shot DSC-TX30 and individual colonies with a Nikon stereoscope.

[4] = tested on: hiPSC (DF6-9-9T); assay: SYTOX Green cell viability assay; assay type: cell-based, human; conditions: 72 hours treatment; 2.5 μM STF-31, 30 μM WZB117, 20 μM PluriSIn
Description: as §1

[5] = tested on: hiPSC; assay: Live/dead staining (calcein AM / ethidium homodimer-1); assay type: cell-based, human; conditions: 72 hours, confluent; 2.5 μM STF-31, 30 μM WZB117, 20 μM PluriSIn
Description: as §1

[6] = tested on: hiPSCs; assay: Cell viability of hiPSCs treated with FK866; assay type: cell-based, human; conditions: up to 72 hours
Description: FIG. 10 presents data regarding FK866 toxicity on human pluripotent stem cells. […] Cell viability data is presented for hiPSCs treated with FK866 for up to 72 hours. […] (B) Cell viability of human pluripotent stem cells 72 hours after treatment initiation with FK866. Cells were treated with a range of concentrations (1 nM to 10 μM) either continuously or for 24 hour pulse.
FIG. 10 presents cell viability data for hiPSCs treated with FK866 (FIG. 9B) for up to 72 hours. […] Therefore, an effective strategy for selectively eliminating pluripotent stem cells is to deplete NAD^+ levels using a NAMPT inhibitor. […] Thus, these compounds will be useful for selectively eliminating tumorigenic cells in cells prepared for transplantation, independent of whether teratoma-causing cells in differentiated cultures are pluripotent or comprise one or more differentiated phenotypes.

[7] = tested on: PAX6 positive neural progenitor cells; assay type: cell-based; conditions: 72 hours continuous STF-31 plus exogenous NA
Description: Data expressed as mean+S.D. (n=4); p<0.05, **p<0.01, ***p<0.001. […] Data expressed as mean+S.D. (n=4), *p<0.05, **p<0.01, ***p<0.001.

[8] = tested on: sub-confluent hiPSC; assay: Cleaved caspase-3/7 fluorescence based assay; assay type: cell-based, human; conditions: after initiation of treatment; 2.5 μM STF-31, 30 μM WZB117
[9] = tested on: sub-confluent hiPSC; assay: Immunoblot analysis of p-AMPK, AMPK, cleaved caspase-3 and -9; assay type: cell-based, human
Description: Immunoblot Analysis: Non-adherent cells were collected by centrifugation, adherent cells were washed once with d-PBS and lysed in Laemmli buffer, combined with non-adherent cell pellet, and heated at 95° C. for 5 minutes. Protein concentration was measured using the Qubit protein assay (Life Technologies). 25 μg of total protein was separated by SDS-PAGE, transferred to nitrocellulose membrane (GE Healthcare Life Sciences) and blocked according to the manufacturer's instructions. Membranes were incubated overnight at 4° C. with the following dilutions of primary antibodies: rabbit anti-cleaved caspase-3 (1:500), rabbit anti-caspase-9 (1:1000), rabbit anti-phospho-AMPK (1:1000), and rabbit anti-AMPK (1:1,000) from Cell Signaling Technology, and mouse anti-GAPDH (1:10,000) from Life Technologies. Membranes were then incubated with secondary antibodies for 45 minutes at the following concentrations: donkey anti-mouse-horseradish peroxidase (1:5,000) and donkey anti-rabbit-horseradish peroxidase (1:7,000) from Jackson Immunoresearch Laboratories, Inc., followed by detection using enhanced chemiluminescence.

[10] = tested on: hiPSC; assay: Extracellular flux analysis (ECAR, OCR); assay type: cell-based, human
Description: Extracellular Flux Analysis: hiPSC were plated at 6e4 cells per well on specialized microplate (Seahorse Bioscience) as previously described with several exceptions. Extracellular flux analysis was performed on hiPSC 48 hours post-plating using Seahorse Bioscience XF24 Analyzer. […] The microplate was equilibrated in non-CO2 incubator for 1.5 h, and analyzed for 16 h in Seahorse Bioscience XF24 Analyzer. Assay medium consists of basal E8 reagents with the following exceptions: basal DMEM F-12 without phenol red (Gibco), no sodium bicarbonate, and 2.5 mM GlutaMAX™ (Gibco) and 15 mM Hepes (Gibco). Assay medium was adjusted to pH 7.4 at 37° C. prior to use. Extracellular acidification rate (ECAR) and basal oxygen consumption rate (OCR) were collected approximately every 60 minutes. Treatments were normalized to baseline media control value and are represented as average of thee biological replicates.

[11] = tested on: sub-confluent hiPSC; assay: Glucose uptake assay ([3H]2-deoxyglucose); assay type: cell-based, human; conditions: 1 hour of treatment; 2.5 μM STF-31, 30 μM WZB117
Description: For 1 hour treatment, cells were placed in Krebs-Ringer Hepes (KRH) containing treatment at 37° C. in a humidified cell incubator with 5% CO2. For 15, 18, and 24 hour treatments, cells were treated in E8 medium for 14, 17, and 23 hours, respectively, at which point media was changed to KRH buffer containing specific treatment for 1 hour. After specified treatment time, glucose uptake was performed with 0.5 μCi [^3H]2-deoxyglucose for 5 min at 37° C. as previously described. Uptake data were normalized to protein concentration measured with Lowry method.

[12] = sub-confluent cells, 30 μM WZB117, 20 μM PluriSIn

In the case of NC(=O)c1cccnc1 [nicotinamide], the “rescue of STF-31 mediated toxicity” value ([1]; 10 and 100 μM nicotinamide, data not shown) is reported as “failed to rescue”.

For O=C(NNc1ccccc1)c1ccncc1 [PluriSIn], the “morphology of hiPSC” value [2] was “minimal alterations in the morphology”, the “formation of alkaline phosphatase-positive colonies” value [3] was “did not prevent colony growth” and the “elimination of hiPSC” value ([1]; 30 μM WZB117, 20 μM PluriSIn) was “eliminated sub-confluent hiPSC”. For the same compound, the “cell death with increasing concentrations” value ([1]; confluent cells, 20-40 μM) was “did not result in cell death”, the toxicity ([1]; confluent cells, 20 μM PluriSIn) was “did not induce significant toxicity” and the toxicity [1, 12] was “only effective on sub-confluent cells”. For the same compound, the “cell viability (SYTOX Green)” value [4] was “no significant reduction” and the live/dead staining [5] was “not toxic”.

O=C(/C=C/c1cccnc1)NCCCCC1CCN(C(=O)c2ccccc2)CC1 [FK866] was tested, and the “toxicity to human pluripotent stem cells relative to STF-31” value [6] was “toxic to human pluripotent stem cells at lower concentrations than STF-31”.

O=C(O)c1cccnc1 [nicotinic acid] was tested, and the “rescue of cell death caused by STF-31” value [7] was “can be rescued”.

In the case of O=C(Oc1cccc(F)c1OC(=O)c1cccc(O)c1)c1cccc(O)c1 [WZB117], the “morphology of hiPSC” value [2] is reported as “morphological changes such as cell swelling”, the “formation of alkaline phosphatase-positive colonies” value [3] is reported as “did not prevent colony growth” and the “elimination of hiPSC” value ([1]; 30 μM WZB117, 20 μM PluriSIn) is reported as “eliminated sub-confluent hiPSC”. The toxicity ([1]; confluent cells treated 24 hours post-plating, 30 μM WZB117) was “toxic”, the toxicity ([1]; confluent cells treated 96 hours post-plating, 30 μM WZB117) was “significantly less toxic” and the toxicity [1, 12] was “toxic”. For the same compound, the “cell viability (SYTOX Green)” value [4] was “no significant reduction”, the “time of induction of caspase-3/7 activity” value [8] was 12 h and the “time at which cleaved caspase-3 and -9 are observed” value ([9]; 2.5 μM STF-31, 30 μM WZB117) was 12 h. For the same compound, the “time by which total levels of AMPK decreased” value ([9]; 30 μM WZB117) was at most 24 h, the “time at which p-AMPK is detected/increased” value ([9]; post-treatment, 2.5 μM STF-31, 30 μM WZB117) was 12 h and the “time before reductions in OCR” value ([10]; 2.5 μM STF-31, 30 μM WZB117) was at most 8 h. For the same compound, the “effect on ECAR” value ([10]; 30 μM WZB117) was “decrease in ECAR by the earliest timepoint measured”, the “decrease in glucose uptake” value [11] was 20% and the live/dead staining [5] was “not toxic”.
